# From article PMC8758724, “Molecular mechanism of agonism and inverse agonism in ghrelin receptor” (Nature Communications, 2022)
# No end group written: not given here. *: point of attachment. Octanoyl = CCCCCCCC(=O)*
# Tested on: ghrelin receptor mutants
# Test: IP1 accumulation, ghrelin receptor mutants, HEK293 cells, 37 °C 2 h (compound 21 containing 10 nM ghrelin)
# Format: cell-based, human
# Details: for ghrelin-induced activation, effect of mutation: peer review file
# Text: Fig. 2 The binding mode of PF-05190457 with the ghrelin receptor. a The detailed binding mode of PF-05190457 in the orthosteric pocket of the ghrelin receptor. The |Fo| − |Fc| omit map (contoured at 3.0 σ) for PF-05190457 (shown as marine blue sticks). […] The diazaspiro core is shown in pink, arm-1 is sky blue, and arm-2 is light green. The red solid lines indicate hydrogen bonds involved in interactions with the side chains of key residues. d–f Key residues of the ghrelin receptor (wheat sticks) involved in ligand binding in cavity III (d), cavity I (e), and cavity IV (f). The binding pocket is highly hydrophobic, and the particular polar network is shown as black dotted lines. g IP1 accumulation induced by the inverse agonist PF-05190457 and antagonist compound 21. Bars represent the difference in the calculated potency (pIC50) of the inverse agonist for mutations relative to the WT ghrelin receptor. Data are colored according to extent of effect. nd not detected, **P < 0.01, ***P < 0.001 (one-way analysis of variance (ANOVA) followed by Dunnett’s test, compared with the response of WT, P < 0.001, P < 0.001, P < 0.001, P > 0.999, nd, nd, P = 0.05, nd, P < 0.001, P < 0.001, nd, nd, nd, nd, nd, nd, P < 0.01, P = 0.264, P < 0.001, nd, P < 0.001, nd from left to right). Data represent the mean ± SEM from n = 3 biologically independent experiments performed in triplicate. […] The salt bridges between E124^3.33 and R283^6.55 as well as between R102^2.63 and Q120^3.29, are broken upon PF-05190457 binding.
# To measure the activity of inverse agonist PF-05190457 (Tocris, Cat. No. 6350), we carried out IP1 accumulation assays for ghrelin receptor independent of agonist. The agonist ghrelin and antagonist compound 21 were also performed as the control. The cDNA of ghrelin receptor subcloned into pcDNA3.1(+) expression vector with a HA signal sequence followed by a Flag tag at the N-terminus. Point mutations used in our study were generated by using Q5 site-Directed Mutagenesis kit (NEB). All the constructs were verified by sequencing. The constructs were expressed in HEK293 cells using PEI transfection reagent (YEASEN, 40815es03) according to the manufacturer’s instruction. Cells were harvested 48 h post transfection.
# IP accumulation was measured using Cisbio IP1 assay kit (Cisbio, 62IPAPEB), which has been previously described. In brief, the harvested cells were distributed in a low volume 96-well dish and stimulated with increased concentration of inverse agonist PF-05190457, agonist ghrelin peptide or antagonist compound 21 containing 10 nM ghrelin peptide at 37 °C for 2 h. After that, d2-labeled IP1 and cryptate-labeled anti-IP1 monoclonal antibody dissolved in Lysis Buffer were added to the wells. After 1 h incubation at room temperature. IP1 was quantified using Synergy H1 microplate reader (BioTek) with excitation at 320 nm, emission at 620 nm, and 665 nm. The accumulation of IP1 was calculated according to a standard dose–response curve in GraphPad Prism 8 (GraphPad Software). Data were represented as the mean ± SEM from three independent experiments and all experiments were repeated at least three times.
# Supplementary Fig. 6: IP1 accumulation assay.
# (a) Expression level of the ghrelin receptor mutants. Data represent the mean ± SEM from three independent experiments performed in triplicate. ns, not significant, **p < 0.01, ***p < 0.001 (one-way analysis of variance [ANOVA] followed by Dunnett’s test, compared with the response […]
# 0.001, p=0.996, p=0.008, p=0.999 from left to right). Data represent the mean ± SEM from n=3 biologically independent experiments performed in triplicate.
# (b) IP1 accumulation measurement induced by inverse agonist PF-05190457(left), agonist ghrelin (middle) and antagonist compound 21 (right). ns, not significant; nd, not detected; ***p < 0.001 […]
# < 0.001, nd, nd, nd, p=0.264, nd, nd from left to right). Data represent the mean ± SEM from […]
substance,measurement,setting,value
"ghrelin: endogenous agonist, 28-amino acid peptide with octanoyl modification at the side chain of Ser+3 (GSS(Octanoyl)FLSPEHQRVQQRKESKKPPAKLQPR; UniProt Q9UBU3 24-51, looked up)","ghrelin-induced activation, effect of mutation",D99^2.60 mutant,decreased potency of ghrelin induced activation
same,"potency, effect of mutation",F279^6.51A,impaired the potency
same,"potency, effect of mutation",F312^7.42A,impaired the potency
same,"ghrelin-induced activation, effect of mutation",R102^2.63 mutant,decreased potency of ghrelin induced activation
same,"potency, effect of mutation",W276^6.48A,impaired the potency
